Test results from patent US20190038784A1, “TAU PET IMAGING LIGANDS” (Janssen Pharmaceutica NV, priority 2016, published 2019).

How the values were obtained:
[1] = molecular target: T1, extracted human tau (aggregated tau, PHF) (Homo sapiens, UniProt P10636); test: Competitive radioligand binding assay with [3H]-T808 on aggregated tau preps from human AD brain; details: for Ki: mean of at least two measurements with SD, calculated from IC50, KD PHF 6.275 nM, 10 nM RL; for IC50: radiolabel displacement of [3H]-T808, 10 nM, read-out: pIC50, binding to extracted human tau (converted)
T1 construct: Tau Ki; other: mean of at least two measurements with SD; other: radiolabel displacement of [3H]-T808, 10 nM
Experimental: (§1) Enriched aggregated tau fractions were prepared according to a slightly modified version of the protocol described by Greenberg and Davies (Greenberg S G, Davies P. A preparation of Alzheimer paired helical filaments that display distinct tau proteins by polyacrylamide gel electrophoresis. Proc. Natl. Acad. Sci. 1990; 87: 5827-5831) using human AD brain tissue (occipital cortex with high tau fibril load). Briefly, frozen human AD brain samples (˜10 g) were homogenized with 10 vol of cold homogenization buffer (10 mM Tris, 800 mM NaCl, 1 mM EGTA, 10% sucrose, pH 7.4 containing PhosSTOP phosphatase and cOmplete EDTA-free protease inhibitor (Roche, Vilvoorde, Belgium)) on ice. After centrifugation at 27 000×g for 20 min at 4° C. the supernatant was recovered and 1% (w/v) N-lauroylsarcosine and 1% (v/v) 2-mercaptoethanol were added. The N-lauroylsarcosine/2-mercaptoethanol supernatant was incubated for 2 h at 37° C. while shaking on an orbital shaker. Subsequently, ultracentrifugation at 108 000×g for 1.5 h at room temperature enriched aggregated tau in the pellet. Supematant was removed and the pellet was carefully rinsed twice with a small amount of TBS (50 mM Tris, 150 mM NaCl, pH 7.4). Finally, the aggregated tau pellet was recovered in TBS and resuspended to ensure sample homogeneity. Small aliquots were stored at −80° C.
(§2) The competitive radioligand binding assays measure the binding of a radiolabeled reference ligand in the presence of a dose response concentration range of test compounds.
(§3) Briefly, aggregated tau preps were diluted to 100 μg protein/ml in PBS buffer with 5% ethanol. In a 96-well format, ^3H-T808 (specific activity; 32.97 Ci/mmol) was added at a final concentration of 10 nM to increasing amounts of test compound in the presence of 20 μg protein of aggregated tau prep. Nonspecific binding was defined as the number of counts remaining in the presence of 50 μM Thioflavin T (common beta sheet binder). After 2 h incubation at room temperature, the unbound ligand is removed by filtration of the binding mixtures over GF/B glass filters using a Filtermate 96 harvester instrument (Perkin Elmer, Zaventem, Belgium). The filters were washed three times with PBS buffer containing 20% ethanol. After overnight drying of the filter plate, Microscint O liquid (Perkin Elmer) was added and the amount of radiolabeled ligand bound to the fibrils is measured by liquid scintillation counting in a Topcount instrument (Packard Instrument Company, Connecticut, USA)
(§4) Values for half-maximal inhibitory concentration (IC50) were determined from displacement curves of at least two independent experiments using GraphPad Prism software (GraphPad Software, San Diego, Calif.).

[2] = test system: extracted human tau (aggregated tau, PHF); test: as above; details: Aβ Ki versus Tau Ki
Experimental: as §1, §2, §3, §4

[3] = molecular target: T2, extracted human amyloid-beta aggregates (Homo sapiens, UniProt P05067); test: Competitive radioligand binding assay with [3H]-AV-45 on amyloid plaque preps from human AD brain; details: for Ki: calculated from IC50, KD Aβ 7.85 nM for 3H-AV45, 10 nM RL; for binding to extracted human amyloid-beta aggregates: up to 10 μM, radiolabel displacement of [3H]-AV-45
T2 construct: from tissue; host or cells: human AD brain, occipital cortex
Experimental: Enriched aggregated β-amyloid preps were prepared from frozen human AD brain samples (10 g—occipital cortex with high amyloid plaques load) that were homogenized with 7-fold vol of cold homogenization buffer (250 mM sucrose, 20 mM Tris base, 1 mM EDTA, 1 mM EGTA and PhosSTOP phosphatase and cOmplete EDTA-free protease inhibitor) on ice. After centrifugation at 27 000×g for 20 min at 4° C. cell debris was removed. Supematant containing amyloid plaques was aliquoted and stored at −80° C.
as §2, §4
To determine compound binding to aggregated β-amyloid a similar assay was put in place but with some minor modifications. Briefly, amyloid preps were diluted to 150 μg protein/ml in 50 mM Tris with 0.1% BSA and 5% ethanol. ^3H-AV-45 (florbetapir-specific activity; 45.95 Ci/mmol) was added at a final concentration of 10 nM to increasing amounts of test compound in the presence of 30 μg protein of amyloid plaques prep. Nonspecific binding was determined in the presence of 500 μM Thioflavin T. After 150 min incubation at room temperature, the binding mixtures were filtered over GF/B glass filters. The filters were washed three times with PBS buffer containing 20% ethanol. Subsequent steps were identical to those described for the aggregated tau preps.

[4] = test system: neurofibrillary tangles (NFTs) in AD brain slices; test: Autoradiography blocking study of [18F]Co. No. 1 on human AD brain slices; format: binding; details: 1 μM cold blocker, Braak stage V-VI slices
Experimental: Air-dried frozen, 20-μm-thick slices of an AD-patient (Braak stage V-VI) were incubated for 60 min with [^18F]Co. No. 1 (7.4 kBq/500 JpL per section) and subsequently washed with mixtures of phosphate buffered saline (PBS) and ethanol as described elsewhere (Xia C F, Arteaga J, Chen G, et al. [(18)F]T807, a novel tau positron emission tomography imaging agent for Alzheimer's disease. Alzheimers Dement. 2013, 1-11, doi: 10.1016/i.ialz.2012.11.008). To assess specificity of binding, slices were incubated with tracer in the presence of 1 μM of authentic T808 or […].
No. 1. After drying, slices were exposed to a phosphor storage screen (super-resolution screen, Perkin Elmer). Screens were read in a Cyclone Plus system (Perkin Elmer, Waltham, Mass., U.S.A.) and analyzed using Optiquant software. Results are expressed as digital light units per square mm (DLU/mm^2). Adjacent AD slices were immunostained with anti-tau (AT8) and anti-Aβ antibodies (AG8), to correlate with [^18F]Co. No. 1 binding. […] The binding pattern corresponds well with the Tau pathology as detected with AT8 IHC on adjacent slides (see FIG. 1). To assess the specificity of the tracer binding to neurofibrillary tangles (NFTs), blocking studies with authentic Co. No. 1 and T808 were performed. […] Blocking percentages were calculated as (DLU/mm^2 in the presence of […] blocker)/(DLU/mm^2 tracer only).

[5] = MicroPET imaging, Wistar rats; format: in vivo; details: baseline scan, whole brain, IV 50 MBq
Experimental: Dynamic 120 min microPET scans were performed on a Focus™ 220 microPET scanner (Concorde Microsystems, Konxville, Tenn., USA) on three female Wistar rats simultaneously, which were kept under gas anesthesia during the whole procedure (2.5% isoflurane in 02 at 1 L/min flow rate). The head of the animals was placed central, in the field of view, of the microPET scanner. Scans were acquired in list mode and acquisition data were Fourier rebinned in 24 time frames (4×15 s, 4×60 s, 5×180 s, 8×300 s, 3×600 s). Data, which were 3D maximum a posteriori (3D-MAP) reconstructed, were manually aligned with a rat brain [^18F]FDG template in Paxinos coordinates using an affine transformation, to allow predefined volumes of interest (VOIs) analysis. Time-activity curves (TACs) of the whole brain were generated using VOIs with PMOD software (v 3.2, PMOD Technologies Ltd., Zdtrich, Switzerland). Radioactivity concentration in the brain was expressed as standardized uptake value (SUV, calculated as (radioactivity in Bq in brain/mL)/(total injected dose (Bq)/body weight in g)) as a function of time after tracer injection. Scans were started immediately after IV injection of 50 MBq [^18F]Co. No. 1 or [^18F]T807 (n=3/tracer). […]

[6] = MicroPET imaging, rhesus monkey (experiment 1); format: in vivo, rhesus monkey (macaca mulatta); details: baseline scan
Experimental: A dynamic 120-min microPET scan with [^18F]Co. No. 1 or [^18F]T807 was performed on a Focus™ 220 microPET scanner (Concorde Microsystems, Knoxville, Tenn., USA) on, respectively, a female rhesus monkey (9 year-old macaca mulatta, 5.3 kg) and a male rhesus monkey (6 year-old macaca mulatta, 7.6 kg), that was sedated with ketamine (Ketalar®) and xylazine (Rompun®) via intramuscular (IM) injection. During scanning the monkey received repeatedly an additional dose of ketamine/xylazine via IV injection. The O2 saturation in the blood, the breathing frequency and heartrate were monitored during the entire experiment. The head of the animal was placed central, in the field of view, of the microPET scanner. Scans were acquired in list mode and acquisition data were Fourier rebinned in 24 time frames (4×15 s, 4×60 s, 5×180 s, 8×300 s, 3×600 s). Data were reconstructed using a 3D maximum a posteriori (3D-MAP) iterative reconstruction. TACs of the whole brain, corpus callosum, cerebellum and entorhinal cortex were generated using VOIs with PMOD software. Radioactivity concentration in the brain is expressed as SUV as a function of time after tracer injection (FIGS. 5a and 5b). Scans were started immediately after IV injection of 185 MBq of [^18F]Co. No. 1 of [^18F]T807 via the vena saphena of the right leg. […]

[7] = MicroPET imaging, rhesus monkey (experiment 2); format: in vivo, rhesus monkey (Macaca mulatta); details: baseline scan
Experimental: A dynamic 120-min μPET scan with [^18F]Co. No. 1 or [^18F]T807 was performed with a Focus 220 μPET scanner on a male rhesus monkey (6 y-old Macaca mulatta, 7.6 kg), that was sedated with ketamine (Ketalar®) and xylazine (Rompun®) via intramuscular (IM) injection. During scanning the monkey received repeatedly an additional dose of ketamine/xylazine via i.v. injection. O2 saturation in blood, breathing frequency and heartbeat frequency were monitored during the entire experiment. The head of the animal was placed central in the field of view of the μPET scanner. Scans were acquired in list mode and Fourier rebinned in 24 time frames (4×15 s, 4×60 s, 5×180 s, 8×300 s, 3×600 s). Data were reconstructed using a 3D maximum a posteriori (3D-MAP) iterative reconstruction. TACs of the whole brain were generated using VOIs with PMOD software. Radioactivity concentration in the brain is expressed as SUV as a function of time after tracer injection. Scans were started immediately after i.v. injection of 185 MBq of [^18F]Co. No. 1 or [^18F]T807 via the vena saphena of the right leg. Results of the 120-min baseline scan of [^18F]Co. No. 1 and [^18F]T807 are shown in FIGS. 7a and 7b, respectively. […] TACs of the baseline scan of [^18F]T807 in the brain show a slower initial brain uptake (SUV value of ˜1.3, time to peak uptake: 15 min) and wash-out (FIG. 8). […]

T1 sequence (P10636 623-695 limits assumed): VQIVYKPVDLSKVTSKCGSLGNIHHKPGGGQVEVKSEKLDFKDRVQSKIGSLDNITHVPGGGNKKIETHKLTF
T2 sequence (P05067 672-713 limits assumed): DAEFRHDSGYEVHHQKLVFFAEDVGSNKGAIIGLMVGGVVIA

| SMILES | Ki [1] [nM] | IC50 [1] [nM] | Selectivity (ratio) [2] | Ki [3] [nM] | binding to extracted human amyloid-beta aggregates [3] | inhibition of [18F]Co. No. 1 binding to AD brain slices [4] [%] | initial brain uptake, SUV value in the brain [5] | wash-out from brain [6] | initial brain uptake, SUV value ([6]; brain, IV 185 MBq) | time to peak uptake ([7]; brain) [min] | initial brain uptake, SUV value ([7]; i.v. 185 MBq, male monkey) |
| --- | --- | --- | --- | --- | --- | --- | --- | --- | --- | --- | --- |
| Cc1cc(Nc2ccc3nc(F)ccc3n2)ccn1 [Co. No. 1] | 7.9 ± 2.5 | 20 | >540 | > 4400 | no measurable binding | 99 |  |  |  |  |  |
| FCCC1CCN(c2ccn3c(n2)nc2ccccc23)CC1 [T808, 2-[4-(2-fluoroethyl)-1-piperidinyl]-pyrimido[1,2-a]benzimidazole, reference compound] |  |  |  |  |  | 98 |  |  |  |  |  |
| Fc1ccc2nc(Nc3ccncc3)ccc2n1 [Co. No. 3] | 11.3 ± 2.8 | 25.1 | >380 | > 4400 | no measurable binding |  |  |  |  |  |  |

The next lines start with the values.

| Ki [1] [nM] | IC50 [1] [nM] | Selectivity (ratio) [2] | Ki [3] [nM] | binding to extracted human amyloid-beta aggregates [3] | inhibition of [18F]Co. No. 1 binding to AD brain slices [4] [%] | initial brain uptake, SUV value in the brain [5] | wash-out from brain [6] | initial brain uptake, SUV value ([6]; brain, IV 185 MBq) | time to peak uptake ([7]; brain) [min] | initial brain uptake, SUV value ([7]; i.v. 185 MBq, male monkey) | SMILES |
| --- | --- | --- | --- | --- | --- | --- | --- | --- | --- | --- | --- |
| 13.5 ± 2.2 | 31.6 | >325 | > 4400 | no measurable binding |  |  |  |  |  |  | Cc1cnccc1Nc1ccc2nc(F)ccc2n1 [Co. No. 2] |
|  |  |  |  |  |  | ~1.6 | slower wash-out | ~1.3 | 15 | ~1.3 | Fc1ccc(-c2ccc3c(c2)[nH]c2ccncc23)cn1 [[^18F]T807, 7-(6-fluoropyridin-3-yl)-5H-pyrido[4,3-b]indole] |
